These are literature values, as cited in patent publication US20130295052A1, “NOVEL CONJUGATES FOR TARGETED DRUG DELIVERY” (priority 2010, published 2013).

Structures are written as SMILES. Where two headings read alike, the source gives them in different places.

For the compound `CC(=O)O[C@@]12CO[C@@H]1C[C@H](O)[C@@]1(C)C(=O)[C@H](O)C3=C(C)[C@@H](OC(=O)[C@H](O)[C@@H](NC(=O)OC(C)(C)C)c4ccccc4)C[C@@](O)([C@@H](OC(=O)c4ccccc4)[C@H]21)C3(C)C` [Taxotere, Docetaxel], the “grade 4 neutropenia (<500 cells/mm3), patients” value runs as follows: (60 mg/m2) 75%; (100 mg/m2) 85%. In addition, where the note is “60-100 mg/m2”, the “neutropenia (<2,000 neutrophils/mm3) occurrence” value is on record as “virtually in all patients”.
